The IC50 is the concentration at which inhibition is half-maximal. Higher therefore signals lower potency.

Among the data in ChEMBL document CHEMBL1144651, “Concise synthesis of dideoxy-epigallocatechin gallate (DO-EGCG) and evaluation of its anti-influenza virus activity” (Bioorg Med Chem Lett, 2007) are IC50 values, retold here.

SMILES strings stand for the structures.

The test system of the experiment is Influenza A virus. In words: Antiviral activity against Influenza A virus (A/Memphis/1/71(H3N2)) in MDCK cells after 16 hrs by focus forming assay. It counts as functional, organism-based, Influenza A virus (A/Memphis/1/1971(H3N2)).

Turning to `O=C(O[C@@H]1Cc2ccccc2O[C@@H]1c1cc(O)c(O)c(O)c1)c1cc(O)c(O)c(O)c1`, the IC50 is 11.9 µM.
Regarding `O=C(O[C@@H]1Cc2c(O)cc(O)cc2O[C@@H]1c1cc(O)c(O)c(O)c1)c1cc(O)c(O)c(O)c1` [EPIGALOCATECHIN GALLATE], the IC50 stood at 41.2 µM.
